Publication PMC11802874, “The hypolipidemic effect of MI-883, the combined CAR agonist/ PXR antagonist, in diet-induced hypercholesterolemia model” (Nature Communications, 2025)
Values joined by “and” are separate entries in the source; they are usually repeats but may differ in a detail not shown here. Identical values can stand only once.

Tests used:
[1] = system: 3D primary human hepatocyte spheroids; test: RT-qPCR mRNA expression in 3D primary human hepatocyte spheroids; format: cell-based; details: for CYP2B6 fold change, 3D PHH spheroids, mean of donors / CYP3A4 fold change, 3D PHH spheroids, mean of donors: MI-883 (5 uM)
Method: (§1) Briefly, PHHs were cultivated for 6 days to generate compact spheroids by spontaneous self-aggregation and then half of PHH medium was exchanged for FBS-free PHH medium. 3D PHHs were treated with MI-883 (5 μM) commenced from day 8 within a time range of 8–120 h (time points were 8, 12, 24, 48, 72, and 120 h). Conditioned FBS-free PHH medium was changed every 2–3 days of the treatment. […] Data are presented as the mean ± SD of fold change expression gained from 3D spheroids of three different donors. ATP assay has been performed as described.

[2] = system: 3D primary human hepatocyte spheroids; test: ATP production and spheroid size in 3D PHH spheroids; format: cell-based
Method: as §1

human PXR LBD = molecular target: T1, human PXR LBD (Homo sapiens, UniProt O75469); test: PXR LBD assembly assay in HepG2 cells; format: cell-based
T1 construct: helix 1 part of the LBD of PXR (residues 132–188); helices 2-12 of the PXR-LBD (residues 189-434); expressed in transfected cells; host or cells: HepG2
Source text: A human PXR LBD assembly assay (Fig. 1k) was done with expression plasmids encoding fusion protein of GAL4-DNA binding domain (DBD) and helix 1 part of the LBD of PXR (residues 132–188) and fusion protein of VP16 activation domain (AD) and helices 2-12 of the PXR-LBD (residues 189-434), respectively, which have all been described previously. Metridia luciferase expression plasmid pMetLuc2control was obtained by Takara-Clontech (Mountain View, CA, USA). Transient batch transfection of HepG2 cells was done in 96-well plates using Jet-PEI transfection reagent (Polyplus, Illkirch, France), as described previously. The following amounts of plasmid DNA per well were used: 0.24 µg pGL4-G5 and 0.03 µg each of expression plasmids encoding GAL4-DBD/PXR(132-188) and VP16-AD/PXR(189-434). All transfections included 0.01 µg pMetLuc2control per well for normalization of firefly luciferase reporter activities. After overnight incubation with the transfection mixtures, cells were treated with chemicals in a volume of 100 µl of cell culture medium. […] Firefly luciferase activity was measured in 10 µl of cell lysates, and Metridia luciferase activity was analyzed in 10 µl of medium supernatant, both as described before. Results were normalized by dividing firefly luciferase activity by Metridia luciferase activity measured from the same well.

Human recombinant CYP3A4 = molecular target: T2, Human recombinant CYP3A4 (Homo sapiens, UniProt P08684); test: CYP450-Glo CYP3A4 enzymatic activity assay; format: biochemical; details: for Inhibition assays, CYP3A4 activity (replicates): log[Agonist]
T2 construct: purchased Promega; host or cells: baculovirus-infected insect cells
Source text: Data are presented as means±S.D. from three independent measurements.

ERα = ERα (Homo sapiens, UniProt P03372); test: Luciferase reporter gene assay ERα, HepG2; format: cell-based
Source text: (see Supplementary Chapter 7).
Thank you for the insightful question and comment. We have corrected the sentence to read:
Thank you for the idea. Yes, we conducted luciferase reporter assays in antagonistic "mode" for several nuclear receptors using their prototype ligands in the revised manuscript (Figure R7).
This information is included in the Supplementary Information.
Treatment with 5 and 10 µM
(1 picture or pasted object on this page, not shown here) […]
nM dexamethasone, 10 µM GW3965 (LXRα agonist), and 10 µM estradiol. Data are presented as a […]

PPARδ/β = PPARδ/β (Homo sapiens, UniProt Q03181); test: Luciferase reporter gene assay PPARδ/β, HepG2
Source text: The luciferase reporter gene assays for FXR, LXRα, LXRβ, THα, GRα, PPARα, PPARδ/β, PPARγ, AhR, VD, ERα, ERβ and mouse Car are described in our recent paper[19]
Gal4-LBD constructs of tested nuclear receptors have been used together with pGL4.31[luc2P/GAL4UAS/Hygro] luciferase reporter construct and pRL-TK Renilla expression vector (both from Promega, Hercules, USA) in HepG2 cells transfected with Lipofectamine 2000 or 3000 reagents. For GRα and FXR receptors, full-length expression vectors have been used with pGRE-luc or pFXRE-luc luciferase constructs. For the aryl hydrocarbon receptor (AhR), p1A1-luc construct was used with only pRL-TK vector for transfection normalization. A dual reporter assay (Promega, Hercules, USA) was used to analyze both firefly and Renilla luciferase activities.
Gal4-LBD constructs of tested nuclear receptors have been used together with pGL5-luc luciferase reporter construct and pRL-TK Renilla expression vector in HepG2 cells transfected with Lipofectamine 2000 or 3000 reagents. For GRα and FXR receptors, full-length expression vectors have been used with pGRE-luc or pFXRE-luc luciferase constructs. For the aryl hydrocarbon receptor (AhR), p1A1-luc construct was used with only pRL-TK vector for transfection normalization. […] Bars represent means±S.D. (n=3).

[3] = system: primary human hepatocytes (PHH); test: RT-qPCR mRNA expression in 2D primary human hepatocytes; details: for CYP2B6 mRNA, RT-qPCR, PHH (Fig. 1g), replicates: ctrl = 1
Source text: The cells were cultivated as 2D monolayers according to the manufacturer’s protocol.
RT-qPCR was used to examine gene expression in 2D and 3D PHH, HepaRG cells, or in mouse liver or intestine (ileum) samples as we have described before[60]–[62].

[4] = MI-883 1 μM, 24 h, one value per donor
[5] = single agent 5 μM: MI-883, CITCO (5 μM) alone

PPARδ/β, sequence (Q03181 211-439 limits assumed): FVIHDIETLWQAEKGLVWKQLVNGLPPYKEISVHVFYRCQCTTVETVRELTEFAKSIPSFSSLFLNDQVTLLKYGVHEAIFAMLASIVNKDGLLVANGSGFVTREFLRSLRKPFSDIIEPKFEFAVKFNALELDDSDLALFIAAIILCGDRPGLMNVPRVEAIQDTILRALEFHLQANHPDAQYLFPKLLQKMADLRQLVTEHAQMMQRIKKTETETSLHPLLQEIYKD
T2 sequence (P08684 whole entry): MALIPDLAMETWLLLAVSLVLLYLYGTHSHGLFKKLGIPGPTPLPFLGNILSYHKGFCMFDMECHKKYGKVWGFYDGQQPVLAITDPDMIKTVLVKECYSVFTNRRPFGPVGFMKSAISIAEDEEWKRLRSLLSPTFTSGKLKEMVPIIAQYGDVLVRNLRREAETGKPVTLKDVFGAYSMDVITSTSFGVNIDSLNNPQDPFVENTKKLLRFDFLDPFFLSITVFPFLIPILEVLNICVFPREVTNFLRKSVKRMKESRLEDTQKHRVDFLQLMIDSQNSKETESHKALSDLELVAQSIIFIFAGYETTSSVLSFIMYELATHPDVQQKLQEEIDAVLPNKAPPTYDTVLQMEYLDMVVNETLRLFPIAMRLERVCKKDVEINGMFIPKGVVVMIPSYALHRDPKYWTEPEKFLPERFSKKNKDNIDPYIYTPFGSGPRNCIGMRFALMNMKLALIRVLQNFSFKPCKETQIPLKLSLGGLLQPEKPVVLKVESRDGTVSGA
ERα, sequence (P03372 311-547 limits assumed, species assumed): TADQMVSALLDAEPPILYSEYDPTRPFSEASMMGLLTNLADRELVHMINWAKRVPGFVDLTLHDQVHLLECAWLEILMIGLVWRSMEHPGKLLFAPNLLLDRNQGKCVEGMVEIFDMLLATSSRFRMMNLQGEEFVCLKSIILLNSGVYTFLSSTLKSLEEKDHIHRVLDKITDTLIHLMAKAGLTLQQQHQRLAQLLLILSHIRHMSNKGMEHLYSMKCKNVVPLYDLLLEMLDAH
T1 sequence (O75469 132-188): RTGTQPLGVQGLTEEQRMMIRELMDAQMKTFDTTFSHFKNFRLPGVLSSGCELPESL
T1 sequence (O75469 189-434): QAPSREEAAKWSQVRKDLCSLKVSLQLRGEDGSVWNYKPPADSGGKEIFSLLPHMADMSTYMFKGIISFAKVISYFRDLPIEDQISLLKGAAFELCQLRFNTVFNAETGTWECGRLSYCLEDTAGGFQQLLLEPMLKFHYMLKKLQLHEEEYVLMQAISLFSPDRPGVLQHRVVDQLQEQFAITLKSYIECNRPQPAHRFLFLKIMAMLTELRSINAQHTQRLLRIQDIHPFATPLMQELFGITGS

NC(=O)c1cc(Cn2cc(-c3c(-c4ccc(Cl)cc4)nc4cc(F)ccn34)nn2)ccc1Cl [MI-883, 2-chloro-5-((4-(2-(4-chlorophenyl)-7-fluoroimidazo[1,2-a]pyridin-3-yl)-1H-1,2,3-triazol-1-yl)methyl)benzamide] was tested, and the “proliferative biomarkers MDM2, PCNA, FOXM1 in 3D human hepatocyte spheroid” value ([1]; 72 h) was “no significant effects”, the “CYP2B6 fold change, 3D PHH spheroids, mean of donors” value (shortened to “CYP2B6 fold change, 3D PHH spheroids”) ([1]; 8 h) was 1.9 and the “CYP3A4 fold change, 3D PHH spheroids, mean of donors” value (shortened to “CYP3A4 fold change, 3D PHH spheroids”) ([1]; 8 h) was 0.9. The “CYP2B6 fold change, 3D PHH spheroids” value ([1]; 12 h) was 3.0, the “CYP3A4 fold change, 3D PHH spheroids” value ([1]; 12 h) was 0.7 and the “CYP2B6 fold change, 3D PHH spheroids” value ([1]; 24 h) was 5.1. For the same molecule, the “CYP3A4 fold change, 3D PHH spheroids” value ([1]; 24 h) was 0.8, the “CYP2B6 fold change, 3D PHH spheroids” value ([1]; 48 h) was 8.0 and the “CYP3A4 fold change, 3D PHH spheroids” value ([1]; 48 h) was 1.0. The “CYP2B6 fold change, 3D PHH spheroids” value ([1]; 72 h) was 8.2, the “CYP3A4 fold change, 3D PHH spheroids” value ([1]; 72 h) was 0.8 and the “CYP2B6 fold change, 3D PHH spheroids” value ([1]; 120 h) was 6.7. For the same molecule, the “CYP3A4 fold change, 3D PHH spheroids” value ([1]; 120 h) was 0.7, the “spheroid size or ATP production in 3D PHHs” value ([2]; 5 μM, 72 h) was “did not see any decrease” and the “Fig. 7c readout relative to control (control 100)” value ([2]; 5 uM, three replicates, control = 100) was 92.8 and 153.7 and 124.1. For the same molecule, the “PXR LBD assembly” value (human PXR LBD) was “stimulates”, the “inhibition of CYP3A4 activity” value (Human recombinant CYP3A4) was “weak inhibitor” and the “Inhibition assays, CYP3A4 activity (replicates)” value (shortened to “Inhibition assays”) (Human recombinant CYP3A4; M 0) was 106 and 134. For the same molecule, the “Inhibition assays” value (Human recombinant CYP3A4; M 0.5) was 69 and 79 and 81, the “Inhibition assays” value (Human recombinant CYP3A4; M 1) was 66 and 67 and 61 and the “Inhibition assays” value (Human recombinant CYP3A4; M -0.5) was 128 and 118 and 132. The “Inhibition assays” value (Human recombinant CYP3A4; M -1) was 126 and 125 and 123, the “Inhibition assays” value (Human recombinant CYP3A4; M -2) was 89 and 124 and the “Inhibition assays” value (Human recombinant CYP3A4; M -2.5) was 100. The “Inhibition assays” value (Human recombinant CYP3A4; M -3) was 100, the “Inhibition assays” value (Human recombinant CYP3A4; M -3.5) was 100 and the “Inhibition assays” value (Human recombinant CYP3A4; M -4) was 100. The “Inhibition assays” value (Human recombinant CYP3A4; M -4.5) was 100, the “NRs assays: ERalpha (relative to ctrl, replicates)” value (ERα) was 0.77 and 1.06 and 0.79 and the “inhibition of estrogen receptor alpha (ERα), antagonistic mode” value (ERα; 10 μM MI-883) was “weak inhibitor”. For the same molecule, the “NRs assays: PPARd (relative to ctrl, replicates)” value (PPARδ/β) was 1.06 and 1.19 and 1.12, the “CYP2B6 mRNA, RT-qPCR, PHH (Fig. 1g), replicates” value ([3]; 1 mM) was 6.40 and 7.90 and 6.20 and the “CYP2B6 mRNA, RT-qPCR, PHH (Fig. 1g), replicates” value ([3]; 5mM) was 11.50 and 14.10 and 10.70. For the same molecule, the “CYP2B6 mRNA in PHH 2 donors (Fig. 3c)” value ([3]; MI-883 1 μM + CITCO (5 μM)) was 18.7857 and 11.1982, the “CYP3A4 mRNA in PHH 2 donors (Fig. 3c)” value ([3]; MI-883 1 μM + CITCO (5 μM)) was 1.145 and 0.8997 and the “CYP2B6 mRNA in PHH 2 donors (Fig. 3c)” value ([3]; MI-883 1 μM + Rif (10 μM)) was 16.0019 and 18.4588. For the same molecule, the “CYP2B6 mRNA in PHH 2 donors (Fig. 3c)” value [3, 4] was 9.7833 and 10.0129, the “CYP3A4 mRNA in PHH 2 donors (Fig. 3c)” value [3, 4] was 1.152 and 1.035 and the “CYP2B6 mRNA in PHH 2 donors (Fig. 3c)” value ([3]; MI-883 5 μM + CITCO (5 μM)) was 4.985 and 8.159. The “CYP2B6 mRNA in PHH 2 donors (Fig. 3c)” value ([3]; MI-883 5 μM + Rif (10 μM)) was 9.78 and 14.5843, the “CYP2B6 mRNA in PHH 2 donors (Fig. 3c)” value ([3]; MI-883 10 μM + CITCO (5 μM)) was 1.856 and 2.089 and the “CYP3A4 mRNA in PHH 2 donors (Fig. 3c)” value ([3]; MI-883 10 μM + CITCO (5 μM)) was 0.35 and 0.4582. The “CYP2B6 mRNA in PHH 2 donors (Fig. 3c)” value ([3]; MI-883 10 μM + Rif (10 μM)) was 2.674 and 5.134, the “CYP3A4 mRNA in PHH 2 donors (Fig. 3c)” value ([3]; MI-883 10 μM + Rif (10 μM)) was 2.14 and 3.421 and the “CYP2B6 mRNA in PHH 2 donors (Fig. 3c)” value [3, 5] was 17.2158 and 12.1241. The “CYP3A4 mRNA in PHH 2 donors (Fig. 3c)” value [3, 5] was 0.6604 and 0.7133 and the “CYP3A4 mRNA in PHH 2 donors (Fig. 3c)” value ([3]; single agent 10 μM: MI-883, Rif (10 μM) alone) was 0.3215 and 0.4561.
